Molecular target: T1, Zcchc11 enzyme (Homo sapiens, UniProt Q5TAX3)
T1 construct: made in house; host or cells: HEK293 cells (Zcchc11); E. coli Rosetta II (LIN28A)
T1 sequence (Q5TAX3 212-1420): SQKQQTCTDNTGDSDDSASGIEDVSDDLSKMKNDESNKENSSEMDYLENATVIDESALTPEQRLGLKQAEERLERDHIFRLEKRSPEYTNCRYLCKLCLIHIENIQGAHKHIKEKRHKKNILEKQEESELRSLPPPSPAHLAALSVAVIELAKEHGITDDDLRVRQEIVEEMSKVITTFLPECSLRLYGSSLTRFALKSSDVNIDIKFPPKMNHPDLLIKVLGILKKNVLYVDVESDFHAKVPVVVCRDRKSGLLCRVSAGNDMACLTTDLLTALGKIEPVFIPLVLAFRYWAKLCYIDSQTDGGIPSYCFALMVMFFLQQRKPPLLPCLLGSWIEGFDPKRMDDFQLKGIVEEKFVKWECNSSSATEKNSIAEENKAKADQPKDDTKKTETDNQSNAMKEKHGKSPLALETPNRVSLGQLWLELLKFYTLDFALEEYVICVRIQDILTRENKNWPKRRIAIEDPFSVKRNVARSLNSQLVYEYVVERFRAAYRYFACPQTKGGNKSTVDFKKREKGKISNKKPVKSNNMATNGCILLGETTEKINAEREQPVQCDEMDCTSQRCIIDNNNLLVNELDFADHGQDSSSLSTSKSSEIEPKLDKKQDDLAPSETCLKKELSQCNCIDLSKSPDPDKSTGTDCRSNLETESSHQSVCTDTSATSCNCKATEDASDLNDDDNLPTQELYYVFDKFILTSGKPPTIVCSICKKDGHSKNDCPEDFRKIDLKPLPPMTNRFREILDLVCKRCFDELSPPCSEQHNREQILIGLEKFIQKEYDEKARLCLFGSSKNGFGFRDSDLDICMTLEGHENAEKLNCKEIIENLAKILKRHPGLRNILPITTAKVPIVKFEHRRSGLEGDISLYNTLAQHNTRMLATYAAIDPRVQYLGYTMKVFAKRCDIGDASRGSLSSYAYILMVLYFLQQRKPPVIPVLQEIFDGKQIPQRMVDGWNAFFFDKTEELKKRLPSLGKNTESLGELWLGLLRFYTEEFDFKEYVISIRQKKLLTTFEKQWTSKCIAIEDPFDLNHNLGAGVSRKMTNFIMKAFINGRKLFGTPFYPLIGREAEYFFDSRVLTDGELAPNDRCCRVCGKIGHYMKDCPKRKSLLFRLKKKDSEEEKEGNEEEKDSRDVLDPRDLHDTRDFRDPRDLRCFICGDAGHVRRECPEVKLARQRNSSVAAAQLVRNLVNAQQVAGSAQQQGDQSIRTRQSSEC
Experiment: TUTase assay (Zcchc11 assay, Lin28a-dependent polyuridylation of pre-let-7)
Assay type: biochemical
Conditions: Lin28a-dependent Zcchc11 (Z11) TUTase activity; read-out: Potency Lin28a-dep Z11 IC50
Outline: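 Polyuridylation measured as fluorescein loss when a rhodamine-labelled A20 probe anneals to U-tails added to fluorescein pre-let-7 (2 nM). Reaction: truncated Zcchc11 0.2 nM, E. coli-made LIN28A 10 nM, UTP 5 uM, HEPES pH 7.3, room temperature. Initial rates fitted to four-parameter IC50.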

IC50 | Compound
≤ 1000 nM | O=C(O)c1cn(-c2ccc(N3CCC3)nc2)c2cc(N3CCC[C@@H]3COc3ncccc3F)c(Cl)cc2c1=O [Compound 289, (R)-1-(6-(azetidin-1-yl)pyridin-3-yl)-6-chloro-7-(2-(((3-fluoropyridin-2-yl)oxy)methyl)pyrrolidin-1-yl)-4-oxo-1,4-dihydro-quinoline-3-carboxylic acid]
≤ 1000 nM | Cc1cccnc1OC[C@H]1CCCN1c1cc2c(cc1F)c(=O)c(C(=O)O)cn2-c1cnn(C)c1 [Compound 291, (R)-6-fluoro-1-(1-methyl-1H-pyrazol-4-yl)-7-(2-(((3-methylpyridin-2-yl)oxy)methyl)pyrrolidin-1-yl)-4-oxo-1,4-dihydro-quinoline-3-carboxylic acid]
≤ 1000 nM | CN(C)C(=O)NC[C@H]1CCCN1c1cc2c(cc1Cl)c(=O)c(C(=O)O)cn2-c1ccc(N2CC(N(C)C)C2)nc1 [Compound 292, (R)-6-chloro-1-(6-(3-(dimethyl-amino)azetidin-1-yl)pyridin-3-yl)-7-(2-((3,3-dimethyl-ureido)methyl)pyrrolidin-1-yl)-4-oxo-1,4-dihydro-quinoline-3-carboxylic acid]
≤ 1000 nM | CN(C)C1CN(c2ccc(-n3cc(C(=O)O)c(=O)c4cc(C#N)c(N5C[C@@H]6C[C@@H]6C5COc5ncccc5F)cc43)cn2)C1 (stereo partly drawn) [Compound 293, 6-cyano-1-(6-(3-(dimethyl-amino)azetidin-1-yl)pyridin-3-yl)-7-((1S,5R)-2-(((3-fluoropyridin-2-yl)oxy)methyl)-3-azabicyclo [3.1.0]hexan-3-yl)-4-oxo-1,4-dihydro-quinoline-3-carboxylic acid]
≤ 1000 nM | COc1ccc(Cl)c(OC[C@H]2CCCN2c2cc3c(cc2Cl)c(=O)c(C(=O)O)cn3-c2ccc(N)nc2)n1 [Compound 294, (R)-1-(6-aminopyridin-3-yl)-6-chloro-7-(2-(((3-chloro-6-methoxy-pyridin-2-yl)oxy)methyl)pyrrolidin-1-yl)-4-oxo-1,4-dihydro-quinoline-3-carboxylic acid]
1000 to 10000 nM | CN(C)C1CN(c2ccc(-n3cc(C(=O)O)c(=O)c4cc(Cl)c(N5CCCC5)cc43)cn2)C1 [Compound 295, C6-chloro-1-(6-(3-(dimethyl-amino)azetidin-1-yl)pyridin-3-yl)-4-oxo-7-(pyrrolidin-1-yl)-1,4-dihydro-quinoline-3-carboxylic acid]
≤ 1000 nM | CC1C[C@H](COc2ncccc2Cl)N(c2cc3c(cc2Cl)c(=O)c(C(=O)O)cn3-c2ccc(N3CC(N(C)C)C3)nc2)C1 (stereo partly drawn) [Compound 296, 6-chloro-7-((2R)-2-(((3-chloropyridin-2-yl)oxy)methyl)-4-methyl-pyrrolidin-1-yl)-1-(6-(3-(dimethyl-amino)azetidin-1-yl)pyridin-3-yl)-4-oxo-1,4-dihydro-quinoline-3-carboxylic acid]
≤ 1000 nM | Cc1cc2c(=O)c(C(=O)O)cn(-c3ccnc(N)c3)c2cc1N1CCC[C@@H]1COc1ncccc1Cl [Compound 297, (R)-1-(2-aminopyridin-4-yl)-7-(2-(((3-chloropyridin-2-yl)oxy)methyl)pyrrolidin-1-yl)-6-methyl-4-oxo-1,4-dihydro-quinoline-3-carboxylic acid]
10000 to 50000 nM | Cc1cc2c(=O)c(C(=O)O)cn(-c3ccc(N4CC(N(C)C)C4)nc3)c2cc1N1C(=O)CC1COc1ccccn1 (stereo not shown) [Compound 298, 1-(6-(3-(dimethyl-amino)azetidin-1-yl)pyridin-3-yl)-6-methyl-4-oxo-7-(2-oxo-4-((pyridin-2-yloxy)methyl)azetidin-1-yl)-1,4-dihydro-quinoline-3-carboxylic acid]
≤ 1000 nM | COc1ccc(Cl)c(OC[C@H]2CCCN2c2cc3c(cc2Cl)c(=O)c(C(=O)O)cn3-c2ccc(N3CC(N(C)C)C3)nc2)n1 [Compound 299, (R)-6-chloro-7-(2-(((3-chloro-6-methoxy-pyridin-2-yl)oxy)methyl)pyrrolidin-1-yl)-1-(6-(3-(dimethyl-amino)azetidin-1-yl)pyridin-3-yl)-4-oxo-1,4-dihydro-quinoline-3-carboxylic acid]
